Results taken from patent publication US7601838B2, “2-Alkyl/aryl sulphonyl-1,2,3,4-tetrahydro-9H-pyrido (3,4-b) indole-3-carboxylic acid esters/amides useful as antithrombotic agents” (Council of Scientific and Industrial Research, priority 2004, dated 2009).

These compounds were tested on collagen and epinephrine induced thrombosis in mice (assay: Effect on mouse thrombosis: collagen and adrenaline induced pulmonary thromboembolism). Conditions: 30 μM/kg orally 60 min prior to collagen + adrenaline challenge.
Format: in vivo
Method: Pulmonary thromboembolism was induced by following a method of Diminno and Silver^(1). Test compounds (30 μM/Kg) or vehicle were administered orally 60 min prior to the thrombotic challenge. A mixture of collagen (150 μg/ml) and adrenaline (50 μg/mL) was administered by the rapid intravenous injection into the tail vein to induce hind limb paralysis or death. A group of 10 animals were used to evaluate the effect of test compound, while 5 mice were used to assess effect of a standard drug, aspirin and a group of vehicle treated (n=5) mice was also used each experiment.
% Protection was expressed as: […]
Ptest is the number of animals paralyzed/dead in the test compound-treated group, and Pcontrol is the number of animals paralyzed/dead in vehicle treated group.
For `NC(=O)C1Cc2c([nH]c3ccccc23)CN1S(=O)(=O)c1cccc([N+](=O)[O-])c1` (stereo not drawn) [u], the “Antithrombotic activity (AT) (% protection)” value was 45%. With `COC(=O)C1Cc2c([nH]c3ccccc23)CN1S(=O)(=O)c1cccc2cccnc12` (racemic) [f, 2[8-quinolinesulfonyl]-1,2,3,4,-tetrahydro-9H-pyrido[3,4-b]indole-3-carboxylic acid ester] the “Antithrombotic activity (AT) (% protection)” value was 20%. With `NC(=O)C1Cc2c([nH]c3ccccc23)CN1S(=O)(=O)c1cc(Cl)ccc1Cl` (stereo not drawn) [o, 2[-2,5-dichlorobenzenesulfonyl]-1,2,3,4,-tetrahydro-9H-pyrido[3,4-b]indole-3-carboxylic acid amide] the “Antithrombotic activity (AT) (% protection)” value was 40%. For `COC(=O)C1Cc2c([nH]c3ccccc23)CN1S(=O)(=O)c1c(C(C)C)cc(C(C)C)cc1C(C)C` (racemic) [h, 2[2,4,6 triisopropylbenzenesulfonyl]-1,2,3,4,-tetrahydro-9H-pyrido[3,4-b]indole-3-carboxylic acid ester], the “Antithrombotic activity (AT) (% protection)” value was 0%. For `CS(=O)(=O)N1Cc2[nH]c3ccccc3c2CC1C(N)=O` (stereo not drawn) [t, 2[methanesulfonyl]-1,2,3,4,-tetrahydro-9H-pyrido[3,4-b]indole-3-carboxylic acid amide], the “Antithrombotic activity (AT) (% protection)” value was 30%. `NC(=O)C1Cc2c([nH]c3ccccc23)CN1S(=O)(=O)c1cccc2cccnc12` (stereo not drawn) [r, 2[8-quinolinesulfonyl]-1,2,3,4,-tetrahydro-9H-pyrido[3,4-b]indole-3-carboxylic acid amide] was tested, and the “Antithrombotic activity (AT) (% protection)” value was 30%. For `COC(=O)C1Cc2c([nH]c3ccccc23)CN1S(=O)(=O)c1ccc(OC)cc1` (racemic) [e], the “Antithrombotic activity (AT) (% protection)” value was 0%. For `COC(=O)C1Cc2c([nH]c3ccccc23)CN1S(=O)(=O)c1c(C)cc(C)cc1C` (racemic) [b, 2[2,4,6, trimethylbenzenesulfonyl]-1,2,3,4,-tetrahydro-9H-pyrido[3,4-b]indole-3-carboxylic acid ester], the “Antithrombotic activity (AT) (% protection)” value was 20%. For `NC(=O)C1Cc2c([nH]c3ccccc23)CN1S(=O)(=O)c1cccc2ccccc12` (stereo not drawn) [q, 2[-1-naphthylsulfonyl]-1,2,3,4,-tetrahydro-9H-pyrido[3,4-b]indole-3-carboxylic acid amide], the “Antithrombotic activity (AT) (% protection)” value was 20%. With `COC(=O)C1Cc2c([nH]c3ccccc23)CN1S(=O)(=O)c1ccc(F)cc1` (racemic) [i, 2[4-fluorobenzenesulfonyl]-1,2,3,4,-tetrahydro-9H-pyrido[3,4-b]indole-3-carboxylic acid ester] the “Antithrombotic activity (AT) (% protection)” value was 0%. For `COC(=O)C1Cc2c([nH]c3ccccc23)CN1S(=O)(=O)c1ccccc1[N+](=O)[O-]` (racemic) [c, 2[2, nitrobenzenesulfonyl]-1,2,3,4,-tetrahydro-9H-pyrido[3,4-b]indole-3-carboxylic acid ester], the “Antithrombotic activity (AT) (% protection)” value was 0%. With `COC(=O)C1Cc2c([nH]c3ccccc23)CN1S(=O)(=O)c1cccc2ccccc12` (racemic) [d, 2[1-naphthylsulfonyl]-1,2,3,4,-tetrahydro-9H-pyrido[3,4-b]indole-3-carboxylic acid ester] the “Antithrombotic activity (AT) (% protection)” value was 20%. With `Cc1cc(C)c(S(=O)(=O)N2Cc3[nH]c4ccccc4c3CC2C(N)=O)c(C)c1` (stereo not drawn) [v] the “Antithrombotic activity (AT) (% protection)” value was 30%. For `COC(=O)C1Cc2c([nH]c3ccccc23)CN1S(C)(=O)=O` (racemic) [k, 2[methylsulfonyl]-1,2,3,4,-tetrahydro-9H-pyrido[3,4-b]indole-3-carboxylic acid ester], the “Antithrombotic activity (AT) (% protection)” value was 50%. For `COC(=O)C1Cc2c([nH]c3ccccc23)CN1S(=O)(=O)c1cccc2c(N(C)C)cccc12` (racemic) [g, 2-[dansylsulfonyl]-1,2,3,4,-tetrahydro-9H-pyrido[3,4-b]indole-3-carboxylic acid ester], the “Antithrombotic activity (AT) (% protection)” value was 20%. For `NC(=O)C1Cc2c([nH]c3ccccc23)CN1S(=O)(=O)c1ccc(F)cc1` (stereo not drawn) [s, 2[-4-fluorobenzenesulfonyl]-1,2,3,4,-tetrahydro-9H-pyrido[3,4-b]indole-3-carboxylic acid amide], the “Antithrombotic activity (AT) (% protection)” value was 60%.

Same assay, conditions: 10 mg/kg (indomethacin)
For `COc1ccc2c(c1)c(CC(=O)O)c(C)n2C(=O)c1ccc(Cl)cc1` [Indomethacin, reference compound], the “Antithrombotic activity (AT) (% protection)” value was 55 ± 15 (n = 20) %.

The compounds below were run on stasis induced thrombosis in LPS treated rabbits (assay: Rabbit venous thrombosis model (stasis induced thrombosis in LPS treated rabbits)). Conditions: evaluated at 10 μM/Kg and 30 μM/kg dose.
Format: in vivo, New Zealand white strain rabbits
Method: [formula] 1.4 Evaluation of coagulation parameters: Blood was collected by cardiac puncture from ether-anaesthetized rat using a syringe containing 3.2% tri-sodium citrate (9:1, v/v). Plasma was obtained by centrifugation of citrated blood at 2500×g for 15 min at 20° C. Stock solutions of the test compounds were prepared freshly in DMSO and were diluted in DMSO. Thrombin time (TT), prothrombin time (PT) and activated partial thromboplastin time (aPTT) were evaluated according to manufacturer's instructions supplied with kits (Stago, France) and measured by Coagulometer (Stago, France)^(4). In each set of experiment effect of DMSO on these parameters was also assessed and was used to calculate change in TT, PT or aPTT. 1.5 Rabbit venous thrombosis model: Experiments were performed on New Zealand white strain rabbits (2-3 kg) either sex. Escherichia coli LPS strain 1055:B5 (Sigma Chemicals, USA) was injected intravenously via ear vein (1 μg/kg)^(5,6). Jugular veins on both sides were exposed and dissected free from surrounding tissue. Two loose surer were placed 1.5 cm apart and all collateral veins were ligated. Four hours after E. coli endotoxin injection (animal is watched for any signs of hypersensitivity reaction during this period), stasis was established and maintained for 45 min by tightening the two sutures. Ligated segments were removed and opened longitudinally and the thrombus was carefully removed and weighed. Heparin sodium (Beparine from beef intestinal mucosa ≧140 USP units/mg; Biological E. Limited, India) was given in doses of (0.5, 0.25, 0.1 mg/kg i.v., via ear vein) 5 min before stasis. 1.6 Effect of compound (i) on human platelet aggregation in vitro: Platelet aggregation study was done on human platelets following isolation of PRP from the human blood as described above (1.3). Aggregation was induced by collagen (10 μg/ml, 5 μg/ml), ADP (10 μM) and thrombin (0.5 U/ml). 2. Results: Effect of test compounds is indicated in the following table (1) against collagen and epinephrine induced thrombosis in mice, which is a primary screening model to detect antithrombotic efficacy of the test agents. At the same dose these compounds were also evaluated for their effect on the bleeding time in mouse (Table 1).
Effect on venous thrombosis model in rabbit: The selected compounds were evaluated at 10 μM/Kg and 30 μM/kg dose for their efficacy against stasis induced thrombosis in LPS treated rabbits. […] Ex vivo effect of selective compounds on rat platelet aggregation: Blood was collected in sodium citrate to obtain PRP and evaluate the ex vivo effect of selective compounds ((i), (ii), (iii) at 30 μM/kg administered by the ip route) against ADP, collagen, phorbol myristate ester (PMA) calcium ionophore (A23187), or thrombin induced aggregation. It was observed that all these compounds were consistent against collagen-induced platelet aggregation (Table 3). (iii) inhibited ADP (10 μM), collagen (10 μg/ml), PMA (1.5 μM), and thrombin (0.64 U/ml) induced platelet aggregation while no inhibition was found against calcium ionophore A23187 (2.5 μg/ml) induced platelet aggregation. […] Effect on clotting parameters: The selected compounds were also tested in vitro for their effect on thrombin time (TT), prothrombin time (PT) and activated partial thromboplastin time (aPTT) at 100 μg/ml and 200 μg/ml in vitro (Table 4). The test compounds at 100 μg/ml had no significant effect of on these parameters. Some effect was though seen on PT at 200 μg/ml concentration, but the concentration seems to be quite high.
Values are Mean±; Compound (i); n=2, Compound (ii); n=4, Compound (iii), n=4 [n is no. of observations in 2 or more animals at 10 μM/Kg or 30 μM/Kg p.o. administered 2 h prior to the stasis] or vehicle control [n=10 observations in five animals]. In heparin treated group n=6 observations for each dose in nine animals.
`COC(=O)C1Cc2c([nH]c3ccccc23)CN1S(=O)(=O)c1ccc(C)cc1` (racemic) [n, 2[4-methylbenzenesulfonyl]-1,2,3,4,-tetrahydro-9H-pyrido[3,4-b]indole-3-carboxylic acid ester] was tested, and the “inhibition of thrombus formation (in words)” value was “inhibited thrombus formations only at 30 μM/Kg”.
